Measured values published in patent US20210147498A1, “USE OF GRAM-NEGATIVE LYSIN-ANTIMICROBIAL PEPTIDE (AMP) POLYPEPTIDE CONSTRUCTS IN PULMONARY SURFACTANT AND BIOFILMS” (priority 2018, published 2021).
Where two headings read alike, the source gives them in different places.

System: carbapenem-resistant P. aeruginosa strains
Experiment: microbe, parasite or virus in culture
Format: cell-based, Pseudomonas aeruginosa
Conditions: for MIC: Pseudomonas aeruginosa; for MIC Combination / MIC Alone: vs. WC-452
Method: Such resensitization may be determined by combining the present lysins or lysin-AMP polypeptide constructs with an antibiotic in a checkerboard assay as described herein. Antibiotic-resistant bacteria, such as carbapenem-resistant P. aeruginosa, are added to the lysin or lysin-AMP polypeptide construct combination. […] See Clinical and Laboratory Standards Institute (CLSI), CLSI. […] M100 Performance Standards for Antimicrobial Susceptibility Testing; 29th Edition. Clinical and Laboratory Standards Institute, Wayne, Pa., which is herein incorporated by reference in its entirety.
Up to seven carbapenem-resistant isolates were assessed. […] See Clinical and Laboratory Standards Institute (CLSI), CLSI. […] M100 Performance Standards for Antimicrobial Susceptibility Testing; 29th Edition. Clinical and Laboratory Standards Institute, Wayne, Pa.

In the case of `C[C@@H](O)[C@H]1C(=O)N2C(C(=O)O)=C(SCCN=CN)C[C@H]12` [Imipenem, imipenem], the MIC (GN121, read-out: MIC (μg/mL) Alone, isolate PA20, checkerboard Imipenem + GN121) is reported as 16 µg/mL, the MIC (GN121, read-out: MIC (μg/mL) Alone, isolate PA21, checkerboard Imipenem + GN121) is reported as 32 µg/mL and the MIC (GN121, read-out: MIC (μg/mL) Alone, isolate PA23, checkerboard Imipenem + GN121) is reported as 16 µg/mL. The MIC (GN123, read-out: MIC (μg/mL) Alone, isolate PA19, checkerboard IMIPENEM + GN123) was 32 µg/mL, the MIC (GN123, read-out: MIC (μg/mL) Alone, isolate PA20, checkerboard IMIPENEM + GN123) was 16 µg/mL and the MIC (GN123, read-out: MIC (μg/mL) Alone, isolate PA21, checkerboard IMIPENEM + GN123) was 32 µg/mL. It also gave an MIC (GN123, read-out: MIC (μg/mL) Alone, isolate PA22, checkerboard IMIPENEM + GN123) of 16 µg/mL, an MIC (GN123, read-out: MIC (μg/mL) Alone, isolate PA23, checkerboard IMIPENEM + GN123) of 8 µg/mL and an MIC (GN123, read-out: MIC (μg/mL) Alone, isolate PA24, checkerboard IMIPENEM + GN123) of 32 µg/mL. The MIC (GN123, read-out: MIC (μg/mL) Alone, isolate WC-452, checkerboard IMIPENEM + GN123) was 16 µg/mL, the “susceptibility category of the isolate, carbapenem Alone” value (isolate PA19) was “(R) ((R) = resistant)” and the “MIC (μg/mL) Combination” value (isolate PA19, IMIPENEM combined with GN123) was 0.5 µg/mL. The “MIC (μg/mL) Combination” value (isolate PA19, Imipenem combined with GN121) was 1 µg/mL, the “susceptibility category of the isolate, carbapenem in Combination” value (“susceptibility category … in Combination” below) (isolate PA19, combined with GN121) was “(S) ((S) = sensitive)” and the “susceptibility category … in Combination” value (isolate PA19, combined with GN123) was “(S) ((S) = sensitive)”. For the same compound, the “susceptibility category of the isolate, carbapenem Alone” value (isolate PA20) was “(R) ((R) = resistant)”, the “MIC (μg/mL) Combination” value (isolate PA20, IMIPENEM combined with GN123) was 1 µg/mL and the “MIC (μg/mL) Combination” value (isolate PA20, Imipenem combined with GN121) was 0.5 µg/mL. The “susceptibility category … in Combination” value (isolate PA20, combined with GN121) was “(S) ((S) = sensitive)”, the “susceptibility category … in Combination” value (isolate PA20, combined with GN123) was “(S) ((S) = sensitive)” and the “susceptibility category of the isolate, carbapenem Alone” value (isolate PA21) was “(R) ((R) = resistant)”. The “MIC (μg/mL) Combination” value (isolate PA21, IMIPENEM combined with GN123) was 0.5 µg/mL, the “MIC (μg/mL) Combination” value (isolate PA21, Imipenem combined with GN121) was 1 µg/mL and the “susceptibility category … in Combination” value (isolate PA21, combined with GN121) was “(S) ((S) = sensitive)”. The “susceptibility category … in Combination” value (isolate PA21, combined with GN123) was “(S) ((S) = sensitive)”, the “susceptibility category of the isolate, carbapenem Alone” value (isolate PA22) was “(R) ((R) = resistant)” and the “MIC (μg/mL) Combination” value (isolate PA22, IMIPENEM combined with GN123) was 2 µg/mL. The “MIC (μg/mL) Combination” value (isolate PA22, Imipenem combined with GN121) was 2 µg/mL, the “susceptibility category … in Combination” value (isolate PA22, combined with GN121) was “(S) ((S) = sensitive)” and the “susceptibility category … in Combination” value (isolate PA22, combined with GN123) was “(S) ((S) = sensitive)”. For the same compound, the “susceptibility category of the isolate, carbapenem Alone” value (isolate PA23) was “(R) ((R) = resistant)”, the “MIC (μg/mL) Combination” value (isolate PA23, IMIPENEM combined with GN123) was 0.25 µg/mL and the “MIC (μg/mL) Combination” value (isolate PA23, Imipenem combined with GN121) was 0.125 µg/mL. For the same compound, the “susceptibility category … in Combination” value (isolate PA23, combined with GN121) was “(S) ((S) = sensitive)”, the “susceptibility category … in Combination” value (isolate PA23, combined with GN123) was “(S) ((S) = sensitive)” and the “susceptibility category of the isolate, carbapenem Alone” value (isolate PA24) was “(R) ((R) = resistant)”. The “MIC (μg/mL) Combination” value (isolate PA24, IMIPENEM combined with GN123) was 2 µg/mL, the “MIC (μg/mL) Combination” value (isolate PA24, Imipenem combined with GN121) was 1 µg/mL and the “susceptibility category … in Combination” value (isolate PA24, combined with GN121) was “(S) ((S) = sensitive)”. The “susceptibility category … in Combination” value (isolate PA24, combined with GN123) was “(S) ((S) = sensitive)”, the “susceptibility category of the isolate, carbapenem Alone” value (isolate WC-452) was “(R) ((R) = resistant)” and the “MIC (μg/mL) Combination” value (isolate WC-452, IMIPENEM combined with GN123) was 1 µg/mL. For the same compound, the “susceptibility category … in Combination” value (isolate WC-452, combined with GN123) was “(S) ((S) = sensitive)”, the “susceptibility category … in Combination” value (isolate WC-452, combined with GN351) was “(S) ((S) = sensitive)” and the “susceptibility category … in Combination” value (isolate WC-452, combined with GN370) was “(S) ((S) = sensitive)”. The “susceptibility category … in Combination” value (isolate WC-452, combined with GN428) was “(S) ((S) = sensitive)”, the MIC Combination (IPM combined with GN351) was 0.5 µg/mL and the MIC Combination (IPM combined with GN370) was 0.5 µg/mL. The MIC Combination (IPM combined with GN428) was 1 µg/mL, the MIC Alone (checkerboard IPM + GN351) was 16 µg/mL and the MIC Alone (checkerboard IPM + GN370) was 16 µg/mL. The MIC Alone (checkerboard IPM + GN428) was 16 µg/mL.
